The values that follow come from patent US7183318B2, “Substituted cyclic compounds, preparation method and pharmaceutical compositions containing them” (Les Laboratoires Servier, priority 1998, dated 2007).

The melting point is the temperature, or range, at which the solid turns liquid. Molecule `COC(=O)Nc1ccc2occ(CCNC(C)=O)c2c1` [Example 58, Methyl N-{3-[2-(acetylamino)ethyl]benzo[b]furan-5-yl}carbamate] had a melting point of 138 to 140 °C.

In turn, `COC(=O)c1ccc2occ(CCNC(=O)C3CCCC3)c2c1` [Example 64, Methyl 3-{2-[(cyclopentylcarbonyl)amino]ethyl}1-benzofuran-5-carboxylate] had a melting point of 122 to 123 °C.

Molecule `COC(=O)c1ccc2occ(CCNC(=O)C3CC3)c2c1` [Example 65, Methyl 3-{2-[(cyclopropylcarbonyl)amino]ethyl}-1-benzofuran-5-carboxylate] registered a melting point of 154 to 155 °C.

Molecule `NC(=O)c1ccc2occ(CCNC(=O)C3CC3)c2c1` [Example 68, 3-{2-[(Cyclopropylcarbonyl)amino]ethyl}-1-benzofuran-5-carboxamide] yielded a melting point of 209 to 210 °C.

Consider `NC(=O)c1ccc2occ(CCNC(=O)c3ccco3)c2c1` [Example 69, 3-[2-(2-Furoylamino)ethyl]-1-benzofuran-5-carboxamide], for which the melting point lay within 110 to 112 °C.

For the molecule `CNC(=O)c1ccc2occ(CCNC(C)=O)c2c1` [Example 71, 3-[2-(Acetylamino)ethyl]-N-methyl-1-benzofuran-5-carboxamide], the melting point lay within 158 to 159 °C.

`CNC(=O)c1ccc2occ(CCNC(=O)C3CCCC3)c2c1` [Example 72, 3-{2-[(Cyclopentylcarbonyl)amino]ethyl}-N-methyl-1-benzofuran-5-carboxamide]: the melting point fell in the range of 170 to 171 °C.

Molecule `CC(=O)NCCc1coc2ccc(NC(=O)OC(C)(C)C)cc12` [Example 76, tert-Butyl 3-[2-(acetylamino)ethyl]-1-benzofuran-5-yl-carbamate] registered a melting point of 146 to 148 °C.
